Laboratory results from PubChem BioAssay AID2060891 (Molecular Pharmacology Branch, DTP, NCI, 2025).
Each block holds one compound with its values, some of them ahead of it.

Tested on: K98450-129-R-PDC complex spheroid growth, percent test/control
Test: Anticancer human tumor K98450-129-R-PDC patient-derived colon adenocarcinoma cell line growth inhibition [RAS]
Conditions: for IC50: curve of first compound; for viability, T/C: stronger effect = lower value
In short: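 Multi-cell-type spheroids: tumor cells plus HUVEC endothelial cells and mesenchymal stem cells. RAS-pathway inhibitors were combined with targeted agents, each dosed in half-log steps down from clinical Cmax, or from 10 microM when Cmax was unknown.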

[1] = second compound 0.000949 µM, first compound 0.0316 µM
[2] = second compound 0.000949 µM, first compound 0.1 µM
[3] = second compound 0.000949 µM, first compound 0.316 µM
[4] = second compound 0.000949 µM, first compound 1 µM
[5] = second compound 0.000949 µM, first compound 3.16 µM
[6] = second compound 0.000949 µM, first compound 10 µM
[7] = second compound 0.003 µM, first compound 0.0316 µM
[8] = second compound 0.003 µM, first compound 0.1 µM
[9] = second compound 0.003 µM, first compound 0.316 µM
[10] = second compound 0.003 µM, first compound 1 µM
[11] = second compound 0.003 µM, first compound 3.16 µM
[12] = second compound 0.003 µM, first compound 10 µM
[13] = second compound 0.00949 µM, first compound 0.0316 µM
[14] = second compound 0.00949 µM, first compound 0.1 µM
[15] = second compound 0.00949 µM, first compound 0.316 µM
[16] = second compound 0.00949 µM, first compound 1 µM
[17] = second compound 0.00949 µM, first compound 3.16 µM
[18] = second compound 0.00949 µM, first compound 10 µM
[19] = second compound 0.03 µM, first compound 0.0316 µM
[20] = second compound 0.03 µM, first compound 0.1 µM
[21] = second compound 0.03 µM, first compound 0.316 µM
[22] = second compound 0.03 µM, first compound 1 µM
[23] = second compound 0.03 µM, first compound 3.16 µM
[24] = second compound 0.03 µM, first compound 10 µM
[25] = second compound 0.0949 µM, first compound 0.0316 µM
[26] = second compound 0.0949 µM, first compound 0.1 µM
[27] = second compound 0.0949 µM, first compound 0.316 µM
[28] = second compound 0.0949 µM, first compound 1 µM
[29] = second compound 0.0949 µM, first compound 3.16 µM
[30] = second compound 0.0949 µM, first compound 10 µM
[31] = second compound 0.3 µM, first compound 0.0316 µM
[32] = second compound 0.3 µM, first compound 0.1 µM
[33] = second compound 0.3 µM, first compound 0.316 µM
[34] = second compound 0.3 µM, first compound 1 µM
[35] = second compound 0.3 µM, first compound 3.16 µM
[36] = second compound 0.3 µM, first compound 10 µM
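Also: spheroids exposed to agents for seven days before the viability readout.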
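For viability, T/C in this document: luminescence used as a proxy for viable cell amount.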

IC50 (second compound 0.000949 µM): 4320 nM
IC50 (second compound 0.003 µM): 376 nM
IC50 (second compound 0.00949 µM): < 31.6 nM
IC50 (second compound 0.03 µM): < 31.6 nM
IC50 (second compound 0.0949 µM): < 31.6 nM
IC50 (second compound 0.3 µM): < 31.6 nM
Compound: CC1(O)CCCC1n1c(=O)c(C(F)F)cc2cnc(NC3CCN(S(C)(=O)=O)CC3)nc21 (centres undefined) + CCn1c(-c2cccnc2C(C)OC)c2c3cc(ccc31)N1CCOC(CC(NC(=O)C(C(C)C)N(C)C(=O)C3(F)CCN(C(=O)C#CC(C)(C)N(C)C)CC3)C(=O)N3CCCC(N3)C(=O)OCC(C)(C)C2)C1
viability, T/C [1]: 76.1%
viability, T/C [2]: 64%
viability, T/C [3]: 68.3%
viability, T/C [4]: 59.1%
viability, T/C [5]: 51.5%
viability, T/C [6]: 44.4%
viability, T/C [7]: 58.2%
viability, T/C [8]: 55.6%
viability, T/C [9]: 52.6%
viability, T/C [10]: 38.6%
viability, T/C [11]: 34.7%
viability, T/C [12]: 31%
viability, T/C [13]: 44.8%
viability, T/C [14]: 38.5%
viability, T/C [15]: 38.3%
viability, T/C [16]: 28.5%
viability, T/C [17]: 29.3%
viability, T/C [18]: 27.1%
viability, T/C [19]: 37.4%
viability, T/C [20]: 41.1%
viability, T/C [21]: 30.1%
viability, T/C [22]: 26.1%
viability, T/C [23]: 31.4%
viability, T/C [24]: 28.1%
viability, T/C [25]: 31.5%
viability, T/C [26]: 31.9%
viability, T/C [27]: 32.2%
viability, T/C [28]: 25.3%
viability, T/C [29]: 29.8%
viability, T/C [30]: 22.7%
viability, T/C [31]: 31.9%
viability, T/C [32]: 33.7%
viability, T/C [33]: 32.6%
viability, T/C [34]: 26.8%
viability, T/C [35]: 29.5%
viability, T/C [36]: 19.6%

IC50 (second compound 0.000949 µM): 2930 nM
IC50 (second compound 0.003 µM): 545 nM
IC50 (second compound 0.00949 µM): < 31.6 nM
IC50 (second compound 0.03 µM): < 31.6 nM
IC50 (second compound 0.0949 µM): < 31.6 nM
IC50 (second compound 0.3 µM): < 31.6 nM
Compound: CCC(CC)c1cc(NC2CCC(N)C2)n2nccc2n1 (centres undefined) + CCn1c(-c2cccnc2C(C)OC)c2c3cc(ccc31)N1CCOC(CC(NC(=O)C(C(C)C)N(C)C(=O)C3(F)CCN(C(=O)C#CC(C)(C)N(C)C)CC3)C(=O)N3CCCC(N3)C(=O)OCC(C)(C)C2)C1
viability, T/C [1]: 77.1%
viability, T/C [2]: 72.7%
viability, T/C [3]: 73%
viability, T/C [4]: 59.7%
viability, T/C [5]: 52.3%
viability, T/C [6]: 11.8%
viability, T/C [7]: 65.2%
viability, T/C [8]: 59%
viability, T/C [9]: 56.8%
viability, T/C [10]: 39.4%
viability, T/C [11]: 36.9%
viability, T/C [12]: 10.6%
viability, T/C [13]: 44.4%
viability, T/C [14]: 53.3%
viability, T/C [15]: 48.8%
viability, T/C [16]: 35.4%
viability, T/C [17]: 20.8%
viability, T/C [18]: 11.9%
viability, T/C [19]: 33.7%
viability, T/C [20]: 42.4%
viability, T/C [21]: 40.2%
viability, T/C [22]: 23.1%
viability, T/C [23]: 20.5%
viability, T/C [24]: 10.4%
viability, T/C [25]: 29.9%
viability, T/C [26]: 33.4%
viability, T/C [27]: 38.3%
viability, T/C [28]: 36.3%
viability, T/C [29]: 11.8%
viability, T/C [30]: 9.38%
viability, T/C [31]: 34.1%
viability, T/C [32]: 36.5%
viability, T/C [33]: 39.2%
viability, T/C [34]: 31.3%
viability, T/C [35]: 12.7%
viability, T/C [36]: 9.36%
